The structures appear in SMILES notation. Like-named read-outs stand apart in the source and are kept apart here.

In the assay the target is T1, S. aureus topoisomerase IV (ATPase kit; ParE subunit) (Staphylococcus aureus, UniProt Q5HG65).
T1 construct: purified topoisomerase IV from commercial kit (Inspiralis), C2E2 heterotetramer; with DNA topoisomerase 4 subunit A
Kind of assay: PK/LDH-coupled ATPase assay, A340. Type of assay: biochemical. From the text:
PK/LDH-coupled ATPase assay, A340 on S. aureus topoisomerase IV (ATPase kit; ParE subunit)

T1 sequence (Q2FYS4 whole entry): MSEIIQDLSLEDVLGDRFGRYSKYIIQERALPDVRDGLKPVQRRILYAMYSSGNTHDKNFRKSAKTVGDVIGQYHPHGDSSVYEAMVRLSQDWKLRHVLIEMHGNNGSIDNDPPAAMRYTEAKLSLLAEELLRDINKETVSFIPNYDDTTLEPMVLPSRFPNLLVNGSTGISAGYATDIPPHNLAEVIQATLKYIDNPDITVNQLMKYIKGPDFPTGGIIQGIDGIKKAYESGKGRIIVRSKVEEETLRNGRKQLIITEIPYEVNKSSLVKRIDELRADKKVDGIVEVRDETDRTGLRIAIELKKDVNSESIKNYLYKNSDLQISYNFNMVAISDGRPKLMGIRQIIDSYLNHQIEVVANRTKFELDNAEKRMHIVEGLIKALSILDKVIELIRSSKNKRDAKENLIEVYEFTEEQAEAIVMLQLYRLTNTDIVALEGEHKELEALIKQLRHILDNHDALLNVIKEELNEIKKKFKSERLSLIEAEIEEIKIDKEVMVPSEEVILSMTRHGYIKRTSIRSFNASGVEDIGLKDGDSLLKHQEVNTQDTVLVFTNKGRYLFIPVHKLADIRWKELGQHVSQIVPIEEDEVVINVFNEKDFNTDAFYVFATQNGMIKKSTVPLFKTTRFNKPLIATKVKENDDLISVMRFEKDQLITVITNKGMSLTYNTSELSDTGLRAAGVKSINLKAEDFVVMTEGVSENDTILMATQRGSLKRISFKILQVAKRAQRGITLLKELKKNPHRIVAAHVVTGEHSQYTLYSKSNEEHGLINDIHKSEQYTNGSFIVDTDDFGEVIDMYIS
T1 sequence (Q5HG65 whole entry): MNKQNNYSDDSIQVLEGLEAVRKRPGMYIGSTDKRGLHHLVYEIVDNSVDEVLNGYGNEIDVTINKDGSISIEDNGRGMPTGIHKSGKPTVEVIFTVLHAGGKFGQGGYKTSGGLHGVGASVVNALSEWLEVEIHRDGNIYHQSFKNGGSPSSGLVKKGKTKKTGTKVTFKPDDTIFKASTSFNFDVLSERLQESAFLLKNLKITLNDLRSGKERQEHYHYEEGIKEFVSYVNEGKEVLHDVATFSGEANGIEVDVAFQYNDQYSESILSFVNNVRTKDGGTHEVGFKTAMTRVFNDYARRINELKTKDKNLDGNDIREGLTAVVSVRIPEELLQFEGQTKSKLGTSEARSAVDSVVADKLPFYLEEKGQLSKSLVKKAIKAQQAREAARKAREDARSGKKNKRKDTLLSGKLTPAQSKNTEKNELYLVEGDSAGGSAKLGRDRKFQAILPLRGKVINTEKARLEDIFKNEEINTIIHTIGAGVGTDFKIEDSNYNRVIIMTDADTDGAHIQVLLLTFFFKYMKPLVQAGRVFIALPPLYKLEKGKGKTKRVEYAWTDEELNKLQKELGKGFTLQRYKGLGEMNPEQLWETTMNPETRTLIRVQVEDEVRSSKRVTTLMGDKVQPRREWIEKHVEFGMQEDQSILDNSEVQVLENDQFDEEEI

Turning to `O=C(NNC(=S)Nc1ccc([N+](=O)[O-])cc1)c1cc2ccccc2[nH]1` [compound 4, 1-(indol-2-oyl)-4-(4-nitrophenyl) thiosemicarbazide], the inhibition at 20 µM (read-out: 4) is 55.8 ± 1.59%.

`O=C(NC(=S)NNC(=O)c1cc2ccccc2[nH]1)c1ccccc1` [compound 7, 4-benzoyl-1-(indol-2-oyl) thiosemicarbazide]: the inhibition at 20 µM (read-out: 7) worked out at 49.4 ± 2.27%.

These data come from PMC8069432, “Thiosemicarbazide Derivatives Decrease the ATPase Activity of Staphylococcus aureus Topoisomerase IV, Inhibit Mycobacterial Growth, and Affect Replication in Mycobacterium smegmatis” (International Journal of Molecular Sciences, 2021).
